Data as given in US11345701B1, “KRAS mutant protein inhibitors” (Jacobio Pharmaceuticals Co., Ltd., priority 2021, dated 2022).
Like-named read-outs stand apart in the source and are kept apart here.

How the values were obtained:
[1] = system: NCI-H358 cells expressing KRAS G12C mutant protein; test: Phospho-ERK1/2(THR202/TYR204) HTRF assay; assay type: cell-based; settings: 2 hours incubation, read-out: p-ERK IC50
Procedure: The NCI-H358 cells in culture medium were seeded in 96-well plates at a concentration of 40,000 cells/well and then put in a 37° C./5% CO2 cell incubator to incubate overnight. […] After 2 hours incubation in a 37° C./5% CO2 cell incubator, the assay medium in 96-well plates was removed, then 50 μL of 1× blocking reagent-supplemented lysis buffer (Cisbio) was added and the plates were incubated at 25° C. for 45 min with shaking. 10 μL of cell lysates from the 96-well plates were transferred to a 384-well plate (Greiner) containing 2.5 μL/well HTRF® pre-mixed antibodies (Cisbio 64AERPEH). Incubate 4 hours at 25° C. and then read HTRF signals on Tecan Spark multimode microplate reader. The data were analyzed using a 4-parameter logistic model to calculate IC50 values.

[2] = Mouse pharmacokinetic study; assay type: in vivo, Balb/c mouse
Procedure: The purpose of this study was to evaluate the pharmacokinetic properties of compounds in Balb/c mouse (♀) following single dose administration. The day before administration, mice were fasted overnight and free access to water. Six mice were needed for each compound and the six mice were divided into two groups (n=3/group), group A and group B. Mice in group A were treated with a single 3 mg/kg dose of compound (iv). Mice in group B were treated with a single 10 mg/kg dose of compound (po). For each mouse in group A, blood samples were collected at pre-dose, and at the time point of 0.083, 0.25, 0.5, 1, 2, 4, 6, 8 and 24 h post-dose. For each mouse in group B, blood samples were collected at pre-dose, and at the time point of 0.25, 0.5, 1, 2, 3, 4, 6, 8 and 24 h post-dose. Blood samples were placed on ice until centrifugation to obtain plasma samples. The plasma samples were stored at −80° C. until analysis. The concentration of compound in plasma samples was determined using a LC-MS/MS method.

HIS-KRAS(G12C) = HIS-KRAS(G12C) (Homo sapiens (Human), UniProt P01116, G12C); test: SOS1 catalyzed nucleotide exchange assay (TR-FRET); assay type: biochemical; settings: GDP-loaded HIS-KRAS(G12C), 1 hour pre-incubation, TR-FRET
Sequence of HIS-KRAS(G12C) (P01116 other isoform, or with tags, fused parts or gaps G12C): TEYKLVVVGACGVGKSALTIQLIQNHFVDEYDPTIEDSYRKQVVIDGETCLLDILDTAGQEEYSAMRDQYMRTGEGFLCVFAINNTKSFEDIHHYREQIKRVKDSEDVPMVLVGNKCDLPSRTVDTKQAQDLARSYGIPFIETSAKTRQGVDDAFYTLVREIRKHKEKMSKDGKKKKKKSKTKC
Procedure: TR-FRET signals were then read on Tecan Spark multimode microplate reader. […] TR-FRET ratios for each individual wells were calculated by equation: TR-FRET ratio=(Signal F515/Signal F486)*10000. Then the data were analyzed using a 4-parameter logistic model to calculate IC50 values.

| SMILES | IC50 ([1]; Homo sapiens, NCI-H358, 2 h) | Pharmacokinetic properties in words ([2]; mouse model, 3 mg/kg iv and 10 mg/kg po) | clearance ([2]; plasma, Balb/c mouse (female), 3 mg/kg, iv) | Vd ([2]; plasma, Balb/c mouse (female), 3 mg/kg, iv, read-out: Vss) | AUC(0-t) ([2]; plasma, Balb/c mouse (female), 10 mg/kg, po, read-out: AUC0-24 h) | Cmax ([2]; plasma, Balb/c mouse (female), 10 mg/kg, po, read-out: Cmax) | bioavailability ([2]; plasma, Balb/c mouse (female), 10 mg/kg, po, read-out: Oral BA (F %)) | IC50 (HIS-KRAS(G12C)) | IC50 [1] |
| --- | --- | --- | --- | --- | --- | --- | --- | --- | --- |
| C=CC(=O)N1CCN(c2nc(=O)n(-c3c(C)ccnc3C(C)C)c3nc(-c4c(N)c(F)c(F)c(F)c4F)c(F)cc23)[C@@H](C)C1 [Compound 2, 4-((S)-4-acryloyl-2-methylpiperazin-1-yl)-7-(2-amino-3,4,5,6-tetrafluorophenyl)-6-fluoro-1-(2-isopropyl-4-methylpyridin-3-yl)pyrido[2,3-d]pyrimidin-2(1H)-one] | 30.7 nM | good pharmacokinetic properties | 65.2 mL/min/kg | 2.31 L/kg | 1150 ng·h/mL | 1440 ng/mL | 44.7% | 2.04 nM |  |
| C=CC(=O)N1CCN(c2nc(=O)n(-c3c(C)ccnc3C(C)C)c3nc(-c4c(N)c(F)c(F)c(F)c4F)c(F)cc23)[C@@H](C)C1 (atropisomer, axis not shown; (P)) [Compound 2-2, (P)-4-((S)-4-acryloyl-2-methylpiperazin-1-yl)-7-(2-amino-3,4,5,6-tetrafluorophenyl)-6-fluoro-1-(2-isopropyl-4-methylpyridin-3-yl)pyrido[2,3-d]pyrimidin-2(1H)-one] |  |  |  |  |  |  |  | 61.8 nM | 681 nM |
| C=CC(=O)N1CCN(c2nc(=O)n(-c3c(C)ccnc3C(C)C)c3nc(-c4c(N)c(F)c(F)c(F)c4F)c(F)cc23)CC1 (single isomer, unassigned) [Compound 3-1, 4-(4-acryloylpiperazin-1-yl)-7-(2-amino-3,4,5,6-tetrafluorophenyl)-6-fluoro-1-(2-isopropyl-4-methylpyridin-3-yl)pyrido[2,3-d]pyrimidin-2(1H)-one] | 25.4 nM |  |  |  |  |  |  | 3.14 nM |  |
